In the experiment the test system is influenza virus H5N1-Vac3. Format: cell-based.

Turning to “Cyclo(Ac-Trp-Thr-MeGly-Asp-MePhe-MePhe-Ser-MeSer-His-Tyr-Thr-Val-Pro-Ala-Cys)-amide [iHA-100-R14A]”, the anti-viral effect result was “high anti-viral effect” and the “anti-viral effect at low concentration” value is “high anti-viral effect even when their concentration is low”.
On the same counts, the results for “Cyclo(Ac-Trp-Thr-MeGly-Asp-MePhe-MePhe-Ser-MeSer-His-Tyr-Thr-Val-Pro-Dap-Cys)-amide [iHA-100-R14Dap]” are “high anti-viral effect” and “high anti-viral effect even when their concentration is low”.
“Cyclo(Ac-Trp-Thr-MeGly-Asp-MePhe-MePhe-Ser-MeSer-His-Tyr-Thr-Val-Pro-Glu-Cys)-amide [iHA-100-R14E]”: the anti-viral effect entry was “high anti-viral effect”.

The values are drawn from patent US10328143B2, “Hemagglutinin-binding peptide” (priority 2014, dated 2019).
